Results published in patent US20130245047A1, “COMPOSITIONS FOR TREATING CANCER-RELATED FATIGUE AND METHODS OF SCREENING THEREOF” (TENERA THERAPEUTICS, LLC, priority 2011, published 2013).
One block for each compound: values may come before it.

Legend:
[1] = test system: BALB/c mice; experiment: etoposide-induced fatigue model (CTRF animal model), activity, weight and blood chemistry; type: in vivo
Experimental: An animal model has been developed to screen for drugs which are efficacious in the treatment, alleviation and/or prevention of chronic fatigue syndrome, such as cancer treatment-related fatigue (“CTRF”). […] The animal's overall activity is measured using a running wheel or other method. In addition, the animal's day and night activity profiles are measured to determine when disrupted sleep architecture is present. This is characterized by disruption of the REM sleep as well as fatigue and cognitive dysfunction. The animal's percent daily weight change is also determined. The levels of cytokines such as IL-6 can be measured, since these are typically elevated with chemotherapy treatment. Results can be provided as percent change of total activity, percent change relative to light exposure, percent weight change over a defined time period (day, week), and combinations thereof.
The model can be created using any one of a number of different drugs, alone or in combination with additional therapy, such as one or more other chemotherapeutics or radiation. The in vitro and in vivo models described above can be used to identify compounds that effectively treat CTRF. In one embodiment, etoposide is administered in a dosage of 50 to 60 mg/kg to cause CTRF. In this study etoposide was administered by a single intraperitoneal injection on the first day of the study.
(§1) For the etoposide-induced fatigue model (FIGS. 2-7), BALB/c mice (obtained and housed as described above) were divided into groups of 10 animals per group: 1. control (untreated) mice, 2. mice treated with a single intraperitoneal dose of 60 mg/kg etoposide on day 1, and 3. mice treated with a single intraperitoneal dose of 60 mg/kg etoposide on day 1, followed by daily oral doses of pentoxifylline administered as a 1 mg/kg dose in the drinking water throughout the study. The animals were then assessed for their level of activity relative to time of day (day and night); total locomotor activity; blood chemistry (hemoglobin, red blood cells, white blood cells); over time in weeks.

[2] = test system: IL-6; experiment: IL-6 levels in etoposide-treated animals; type: in vivo, mice; details: increasing etoposide dosing (0, 50 or 60 mg/kg); FIG. 3
Experimental: An animal model has been developed to screen for drugs which are efficacious in the treatment, alleviation and/or prevention of chronic fatigue syndrome, such as cancer treatment-related fatigue (“CTRF”). […] The animal's overall activity is measured using a running wheel or other method. In addition, the animal's day and night activity profiles are measured to determine when disrupted sleep architecture is present. This is characterized by disruption of the REM sleep as well as fatigue and cognitive dysfunction. The animal's percent daily weight change is also determined. The levels of cytokines such as IL-6 can be measured, since these are typically elevated with chemotherapy treatment. […]
as §1, with “[…], […],” for “2. mice treated with a single intraperitoneal dose of 60 mg/kg etoposide on day 1, and 3. mice treated with a single intraperitoneal dose of 60 mg/kg etoposide on day 1,”

[3] = test system: female BALB/c mice; experiment: LPS-induced fatigue model, daily activity counts; type: in vivo; details: single intraperitoneal dose of 2.5 mg/kg lipopolysaccharide vs saline control; FIG. 1
Experimental: For the LPS-induced fatigue model shown in FIG. 1, […], female BALB/c mice were obtained from Charles River Laboratories (Wilmington, Mass.). The mice were randomized into 2 groups of 10 prior to treatment. Animals were housed 5 per cage in micro-isolators and allowed to acclimatize for 4 days prior to dosing. Animal were given food and water ad libitum with a 12 hour light/12 hour dark schedule.
Animals in the control group were initially injected intraperitoneally with saline. Animals in the LPS group were injected intraperitoneally with a single dose of 2.5 mg/kg lipopolysaccharide on dayl.

[4] = etoposide, over time in days, FIG. 5

- fatigue (percent of baseline) over time (weeks) ([1]; 60 mg etoposide/kg, 12 hour dark cycle or 12 hour light cycle, FIG. 4): decreased activity
- percent daily weight change (shift of circadian rhythm) [1, 4]: weight loss
- dependence of the observed results on anemia (blood chemistry) ([1]; mice treated with etoposide): independent of anemia
- levels of IL-6 [2]: increased levels of IL-6
Compound: COc1cc([C@@H]2c3cc4c(cc3[C@@H](O[C@@H]3O[C@@H]5CO[C@@H](C)O[C@H]5[C@H](O)[C@H]3O)[C@H]3COC(=O)[C@H]23)OCO4)cc(OC)c1O [etoposide]
- total locomotor activity over time (weeks) ([1]; 60 mg etoposide/kg single intraperitoneal dose, FIG. 2): decreased total activity over time of treatment
- activity counts (shift of circadian rhythm) [1, 4]: decreased activity, which was more pronounced during the evening

Compound: CC(=O)CCCCn1c(=O)c2c(ncn2C)n(C)c1=O [Pentoxifylline]
- total locomotor activity ([1]; animals treated with 60 mg etoposide/kg, then daily oral pentoxifylline 1 mg/kg in drinking water, FIG. 6): improves activity
- 12 hour dark activity over time (weeks) ([1]; etoposide treated followed by pentoxifylline 1 mg/kg daily oral vs etoposide treated and untreated control, FIG. 7A): significantly increase nocturnal activity
- 12 hour light activity over time (weeks) ([1]; etoposide treated followed by pentoxifylline 1 mg/kg daily oral vs etoposide treated and untreated control, FIG. 7B): decrease activity when animals should be sleeping

Compound: lipopolysaccharide [LPS]
- total daily activity (counts/group) per day [3]: decreased activity indicative of fatigue
